Where two headings read alike, the source gives them in different places.
What was measured:
[1] = test system: bacterial cell membrane disruption / depolarization; conditions: DiSC3; cited from earlier work
[2] = test system: bacterial cell membrane permeability; conditions: PI; cited from earlier work
Ac2K-D-Ala-D-Lac = conditions: remodeled peptidoglycan precursor; cited from earlier work
[3] = test system: bacterial cell membrane disruption / depolarization; experiment: Membrane depolarization assay; assay type: cell-based; conditions: DiSC3 release

telavancin
membrane depolarization activity (in words) [1]: observed
induced cell membrane permeability (in words) [2]: activity in both assays has been observed

oritavancin
membrane depolarization activity (in words) [1]: observed
induced cell membrane permeability (in words) [2]: activity in both assays has been observed

vancomycin [compound 1]
decrease in binding affinity on replacing ᴅ-Ala-ᴅ-Ala with ᴅ-Ala-ᴅ-Lac (Ac2K-D-Ala-D-Lac): 1,000 fold

CBP-vancomycin [compound 3]
membrane depolarization activity (in words) [3]: also observed
